Data reported in patent publication US8394426B2, “Composition comprising an extract of hardy kiwi for preventing or treating baldness disorders or seborrheic skin disorders” (Viromed Co., Ltd., priority 2004, dated 2013).

Test system: blood DHT
Test: concentration of blood DHT in mice after oral administration, measured by ELISA
Assay type: in vivo
Conditions: male C57BL/6 mice, oral finasteride 100 μg/mouse/day for 3 weeks, FIG. 4
Method: To confirm the inhibition effect of hardy kiwi extract on the concentration of blood DHT, the water extract and ethanol extract of fruit of Actinidia arguta were administrated into mice and the concentration of blood DHT were determined by following procedure;
Male C57BL/6 mice, aged 6 weeks (Seoul national university animal experimental center) were acclimated to the environment for 1 week. After 1 week, 16 mice were divided into 4 groups and each group was orally administered with 100 μl of the water extract of fruit of Actinidia arguta (1500 μg/mouse/day), 100 μl of the ethanol extract of fruit of Actinidia arguta (1500 μg/mouse/day), 100 μl of finasteride (100 μg/mouse/day), and 100 μl of drinking water (100 μg/mouse/day) for 3 weeks, respectively. After mice were sacrificed and the blood serum and spleen organ were colllected therefrom, the concentration of blood DHT was measured by ELISA (IBL-Hamburg GmbH) method. […]
After 1 week, 8 mice were divided into 2 groups and each group was orally administered with 100 μl of the water extract of dried stem of A. arguta (1500 μg/mouse/day) and 100 μl of drinking water (100 μg/mouse/day) for 3 weeks, respectively. After mice were sacrificed and the blood serum and spleen organ was colllected therefrom, the concentration of blood DHT was measured.

Compound: CC(C)(C)NC(=O)[C@H]1CC[C@H]2[C@@H]3CC[C@H]4NC(=O)C=C[C@]4(C)[C@H]3CC[C@]12C [finasteride]
- decrease of concentration of blood DHT: about 90%
